The source of these data is US7709471B2, “Compounds” (AstraZeneca AB, priority 2006, dated 2010).

The test system of assay [1] is human colon tumour cell line HT29. In words: Cellular Assay (phosphohistone H3 Ser10 mitotic marker, HT29). Type of assay: cell-based. The note with it: HT-29, 24 h, HT29 cells, read-out: IC50 (cellular assay, phosphohistone H3).
Experimental: Chromosome condensation in mitosis is accompanied by phosphorylation of histone H3 on serine 10.
After 24 hours, cells were fixed in 3.7% (v/v) formaldehyde then permeabilised and blocked for 10 minutes in 100 μl 0.5% (v/v) Triton X-100, 1% (w/v) bovine serum albumin (BSA) in phosphate buffered saline (PBS). […] The raw assay data were analysed by non-linear regression analysis and used to determine an IC50 value for each compound.
The next assay addresses recombinant Plk1 (Homo sapiens, UniProt P53350). In words: In Vitro Plk1 Enzyme Assay (SPA, GST-Cdc25C phosphorylation). Type of assay: biochemical. The note with it: ATP 64 nM, 90 minutes, read-out: IC50 (Plk1 enzyme inhibition).

recombinant Plk1, sequence (P53350 whole entry): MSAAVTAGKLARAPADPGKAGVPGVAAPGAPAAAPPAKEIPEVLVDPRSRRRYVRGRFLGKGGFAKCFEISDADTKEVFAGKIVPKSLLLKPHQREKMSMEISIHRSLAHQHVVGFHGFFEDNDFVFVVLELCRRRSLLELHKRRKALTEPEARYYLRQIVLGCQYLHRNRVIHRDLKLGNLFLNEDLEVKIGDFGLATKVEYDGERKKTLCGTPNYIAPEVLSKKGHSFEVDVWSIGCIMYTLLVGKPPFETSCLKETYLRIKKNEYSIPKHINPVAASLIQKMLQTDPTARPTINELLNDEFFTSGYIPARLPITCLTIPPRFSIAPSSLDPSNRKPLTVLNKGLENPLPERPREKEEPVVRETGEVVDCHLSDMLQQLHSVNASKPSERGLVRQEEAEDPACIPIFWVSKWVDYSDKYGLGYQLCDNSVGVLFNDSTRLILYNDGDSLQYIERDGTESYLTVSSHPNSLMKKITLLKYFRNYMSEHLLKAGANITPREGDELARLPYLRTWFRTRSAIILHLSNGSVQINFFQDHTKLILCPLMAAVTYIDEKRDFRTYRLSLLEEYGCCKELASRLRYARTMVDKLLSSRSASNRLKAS

`COc1cc(C(=O)NC2CN3CCC2CC3)ccc1Nc1ncc2c(n1)N(C1CCCC1)CCC(=O)N2C` (stereo not drawn) [Example 22, N-(1-azabicyclo[2.2.2]oct-8-yl)-4-[(6-cyclopentyl-2-methyl-3-oxo-2,6,8,10-tetrazabicyclo[5.4.0]undeca-8,10,12-trien-9-yl)amino]-3-methoxy-benzamide]: the IC50 (in assay [1]; at recombinant Plk1) was less than 300 nM each time.

With `COc1cc(C(=O)N[C@@H]2CCN(C(=O)OC(C)(C)C)C2)ccc1Nc1ncc2c(n1)N(C1CCCC1)CCC(=O)N2C` [Example 52, tert-butyl (3R)-3-[[4-[(6-cyclopentyl-2-methyl-3-oxo-2,6,8,10-tetrazabicyclo[5.4.0]undeca-8,10,12-trien-9-yl)amino]-3-methoxy-benzoyl]amino]pyrrolidine-1-carboxylate], the IC50 (in general, the midpoint of a concentration-inhibition curve) in assay [1] is less than 300 nM; on recombinant Plk1, less than 1000 nM.

`CN1C(=O)CCN(C2CCCC2)c2nc(Nc3ccc(C(=O)NC4CCCCC4)cc3)ncc21` [Example 89, N-cyclohexyl-4-[(6-cyclopentyl-2-methyl-3-oxo-2,6,8,10-tetrazabicyclo[5.4.0]undeca-8,10,12-trien-9-yl)amino]benzamide]: the IC50 was less than 30000 nM in assay [1] and less than 1000 nM at recombinant Plk1.
